pEC50, pIC50: −log10 of the molar value. Read-outs that look alike come from different tables or passages of the source.
Key:
[1] = tested on: IL-2 production in Jurkat cells; test: cells; assay type: cell-based, human; details: for pIC50: read-out: immunosuppression IL-2 (IC50)
[2] = tested on: Human T cell lymphoma (Jurkat) cells
in vitro = details: human

CC(C)[C@]1(O)[C@H](Cl)[C@@H]2O[C@]23[C@@]2(OC(=O)O[C@H]12)[C@H](Cl)C[C@H]1C2=C(CC[C@@]13C)C(=O)OC2 [PG757]
inhibition of IL-2 production [1]: inhibited IL-2 production
pIC50 ([1]; Homo sapiens, Jurkat, 24 h): 8.05
cytotoxicity in MTT assay compared with triptolide [2]: significantly more cytotoxic
cytotoxicity to Jurkat cells [2]: cytotoxic to Jurkat cells
pEC50 (in vitro): 7.49

CC(C)[C@]12O[C@H]1[C@@H]1O[C@]13[C@@]1(OC(=O)O[C@H]21)[C@H](Cl)C[C@H]1C2=C(CC[C@@]13C)C(=O)OC2 [PG762]
inhibition of IL-2 production [1]: inhibited IL-2 production
pIC50 ([1]; Homo sapiens, Jurkat, 24 h): 8.05
cytotoxicity in MTT assay compared with triptolide [2]: comparable potency
cytotoxicity to Jurkat cells [2]: cytotoxic to Jurkat cells
pEC50 (in vitro): 7.22

CC(C)[C@]12O[C@H]1[C@@H]1O[C@]13[C@]1(O[C@H]1C[C@H]1C4=C(CC[C@@]13C)C(=O)OC4)[C@@H]2OC(=O)C(=O)O[C@@H]1[C@@]2(C(C)C)O[C@H]2[C@@H]2O[C@]23[C@]12O[C@H]2C[C@H]1C2=C(CC[C@@]13C)C(=O)OC2 [PG782]
inhibition of IL-2 production [1]: inhibited IL-2 production
pIC50 ([1]; Homo sapiens, Jurkat, 24 h): 8.70
cytotoxicity in MTT assay compared with triptolide [2]: more potent than triptolide
cytotoxicity to Jurkat cells [2]: cytotoxic to Jurkat cells
pEC50 (in vitro): 7.28

triptolide [PG490, reference compound]
pIC50 ([1]; Jurkat cells stimulated with PMA and PHA, 24 hrs, test compounds incubated in serum for 24 hrs): 8.40
pEC50 ([2]; read-out: Viability/Cytotoxicity MTT (ED50), Jurkat cells, 24 h culture, test compounds incubated in serum for 24 hrs): 7.22
